ChEMBL document CHEMBL3352768, “Synthesis and PGE₂ production inhibition of s-triazine derivatives as a novel scaffold in RAW 264.7 macrophage cells” (Bioorg Med Chem Lett, 2014)
One block for each compound: values may come before it.

Key:
RAW264.7 [1] = assay: Inhibition of PGE2 production in LPS-induced mouse RAW264.7 cells at 10 uM; type: functional
RAW264.7 [2] = assay: Cytotoxicity against mouse RAW264.7 cells assessed as reduction in cell viability by MTT assay; type: cell-based
RAW264.7 [3] = assay: Inhibition of PGE2 production in LPS-induced mouse RAW264.7 cells at 1 uM; type: functional
[4] = biological target: T1, Prostaglandin G/H synthase 2 (Homo sapiens) (UniProt P35354); assay: Inhibition of human recombinant COX2 in cell-free system at 10 uM by enzyme immunoassay
T1 sequence (whole entry): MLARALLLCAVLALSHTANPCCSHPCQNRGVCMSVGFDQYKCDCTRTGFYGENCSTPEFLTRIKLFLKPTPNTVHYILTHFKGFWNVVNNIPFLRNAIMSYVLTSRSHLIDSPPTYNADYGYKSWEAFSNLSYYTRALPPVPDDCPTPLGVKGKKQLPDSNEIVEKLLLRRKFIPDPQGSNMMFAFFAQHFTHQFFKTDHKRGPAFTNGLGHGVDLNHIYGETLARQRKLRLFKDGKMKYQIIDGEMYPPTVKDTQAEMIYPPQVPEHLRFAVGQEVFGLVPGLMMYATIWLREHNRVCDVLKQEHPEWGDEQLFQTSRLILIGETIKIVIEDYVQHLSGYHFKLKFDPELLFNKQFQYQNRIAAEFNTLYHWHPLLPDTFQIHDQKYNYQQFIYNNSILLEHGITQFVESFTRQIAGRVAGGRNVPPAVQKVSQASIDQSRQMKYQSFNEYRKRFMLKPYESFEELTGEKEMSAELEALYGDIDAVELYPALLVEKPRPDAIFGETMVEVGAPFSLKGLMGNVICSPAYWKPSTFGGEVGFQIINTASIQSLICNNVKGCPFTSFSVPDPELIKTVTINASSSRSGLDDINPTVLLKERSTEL

RAW264.7 [5] = assay: Inhibition of PGE2 production in LPS-induced mouse RAW264.7 cells; type: functional, cell-based
RAW264.7 [6] = assay: Inhibition of PGE2 production in LPS-induced mouse RAW264.7 cells at 3 uM; type: functional
[7] = biological target: T2, Prostaglandin G/H synthase 2 (Homo sapiens, UniProt P35354); assay: Inhibition of human recombinant COX2 in cell-free system by enzyme immunoassay
T2 sequence (P35354 whole entry): T1 sequence (whole entry)

Compound: O=C(O)C(Sc1nc(Cl)nc(Nc2ccc(-c3ccccc3)cc2)n1)c1cccc2ccccc12 (stereo not given)
inhibition at 10 µM (RAW264.7 [1]): 7.77%
Activity (RAW264.7 [2]): > 10 µM

Compound: Cc1nc(Nc2ccc(C(C)C)cc2)nc(SC(C(N)=O)c2ccccc2)n1 (stereo not given)
inhibition at 1 µM (RAW264.7 [3]): 26.5%
Activity (RAW264.7 [2]): < 10 µM

Compound: COC(=O)C(Sc1nc(Cl)nc(Nc2ccc(Oc3ccccc3)cc2)n1)c1ccccc1 (stereo not given)
inhibition at 10 µM (RAW264.7 [1]): 85.8%
Activity (RAW264.7 [2]): > 10 µM

Compound: CCOC(=O)C(Sc1nc(Cl)nc(Nc2ccc(Cc3ccccc3)cc2)n1)c1cccc2ccccc12 (stereo not given)
inhibition at 10 µM (RAW264.7 [1]): 72.6%
Activity (RAW264.7 [2]): > 10 µM

Compound: COC(=O)C(Sc1nc(Cl)nc(Nc2ccc(Oc3ccccc3)cc2)n1)c1cccc2ccccc12 (stereo not given)
inhibition at 10 µM (RAW264.7 [1]): 72.5%
Activity (RAW264.7 [2]): > 10 µM

Compound: CCOC(=O)C(Sc1nc(Cl)nc(Nc2ccc(C3CCCCC3)cc2)n1)c1cccc2ccccc12 (stereo not given)
inhibition at 10 µM (RAW264.7 [1]): 43.7%
Activity (RAW264.7 [2]): > 10 µM

Compound: COC(=O)C(Sc1nc(Cl)nc(Nc2ccc(C(C)C)cc2)n1)c1cccc2ccccc12 (stereo not given)
inhibition at 10 µM (RAW264.7 [1]): 88.7%
Activity (RAW264.7 [2]): > 10 µM

inhibition [4]: 31.8%
IC50 (RAW264.7 [5]): 5.76 µM
Compound: COC(=O)C(Sc1nc(Cl)nc(Nc2ccc(C(C)C)cc2)n1)c1ccccc1 (stereo not given)
inhibition at 10 µM (RAW264.7 [1]): 91.8%
Activity (RAW264.7 [2]): > 10 µM

Compound: CS(=O)(=O)Nc1ccc([N+](=O)[O-])cc1OC1CCCCC1 [NS-398]
inhibition at 3 µM (RAW264.7 [6]): 99.4%

IC50 [7]: 58 µM
Compound: CC(C)c1ccc2c(c1)c(SC(C)(C)C)c(CC(C)(C)C(=O)O)n2Cc1ccc(Cl)cc1

Compound: COC(=O)C(Sc1nc(Cl)nc(Nc2ccc(-c3ccccc3)cc2)n1)c1ccccc1 (stereo not given)
inhibition at 10 µM (RAW264.7 [1]): 82.7%
Activity (RAW264.7 [2]): > 10 µM

Compound: COC(=O)C(Sc1nc(C)nc(Nc2ccc(C(C)C)cc2)n1)c1ccccc1 (stereo not given)
inhibition at 10 µM (RAW264.7 [1]): 85.7%
Activity (RAW264.7 [2]): > 10 µM

inhibition [4]: 0%
IC50 (RAW264.7 [5]): 5.52 µM
Compound: COC(=O)C(Sc1nc(Cl)nc(Nc2ccc(Cc3ccccc3)cc2)n1)c1ccccc1 (stereo not given)
inhibition at 10 µM (RAW264.7 [1]): 90.8%
Activity (RAW264.7 [2]): > 10 µM

Compound: CCOC(=O)C(Sc1nc(Cl)nc(Nc2ccc(-c3ccccc3)cc2)n1)c1cccc2ccccc12 (stereo not given)
inhibition at 10 µM (RAW264.7 [1]): 78.6%
Activity (RAW264.7 [2]): > 10 µM
